Laboratory results: US11352340B2, “Pyridine and pyridimine compounds as PI3K-gamma inhibitors” (Incyte Corporation, priority 2016, dated 2022)
pIC50: −log10 of the molar value. Where a name gives a salt, the structure may show the parent alone. Read-outs that look alike come from different tables or passages of the source.

What was measured:
[1] = tested on: Phosphorylated Ribosomal Protein S6 (RPS6) in THP-1 cells; assay: THP-1 RPS6 ELISA Assay; format: cell-based, Human; conditions: MCP-1 stimulated, phospho-RPS6 ELISA, read-out: THP p-RPS6 ELISA IC50
Method in brief: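 Serum-starved THP-1 cells (2×10^5/well, RPMI) preincubated with compound 2 h at 37° C, then stimulated with 10 nM MCP-1 for 15 min. Lysates assayed by phospho-RPS6 ELISA, absorbance 450 nm (540 nm correction); IC50 from percent inhibition versus log concentration.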

[2] = biological target: PI3Kδ (p110δ/p85α) Recombinant Human Protein (Homo sapiens (Human), UniProt O00329); assay: PI3Kδ Scintillation Proximity Assay; format: biochemical; conditions: read-out: PI3K-delta SPA IC50
Sequence of PI3Kδ (p110δ/p85α) Recombinant Human Protein (O00329 whole entry): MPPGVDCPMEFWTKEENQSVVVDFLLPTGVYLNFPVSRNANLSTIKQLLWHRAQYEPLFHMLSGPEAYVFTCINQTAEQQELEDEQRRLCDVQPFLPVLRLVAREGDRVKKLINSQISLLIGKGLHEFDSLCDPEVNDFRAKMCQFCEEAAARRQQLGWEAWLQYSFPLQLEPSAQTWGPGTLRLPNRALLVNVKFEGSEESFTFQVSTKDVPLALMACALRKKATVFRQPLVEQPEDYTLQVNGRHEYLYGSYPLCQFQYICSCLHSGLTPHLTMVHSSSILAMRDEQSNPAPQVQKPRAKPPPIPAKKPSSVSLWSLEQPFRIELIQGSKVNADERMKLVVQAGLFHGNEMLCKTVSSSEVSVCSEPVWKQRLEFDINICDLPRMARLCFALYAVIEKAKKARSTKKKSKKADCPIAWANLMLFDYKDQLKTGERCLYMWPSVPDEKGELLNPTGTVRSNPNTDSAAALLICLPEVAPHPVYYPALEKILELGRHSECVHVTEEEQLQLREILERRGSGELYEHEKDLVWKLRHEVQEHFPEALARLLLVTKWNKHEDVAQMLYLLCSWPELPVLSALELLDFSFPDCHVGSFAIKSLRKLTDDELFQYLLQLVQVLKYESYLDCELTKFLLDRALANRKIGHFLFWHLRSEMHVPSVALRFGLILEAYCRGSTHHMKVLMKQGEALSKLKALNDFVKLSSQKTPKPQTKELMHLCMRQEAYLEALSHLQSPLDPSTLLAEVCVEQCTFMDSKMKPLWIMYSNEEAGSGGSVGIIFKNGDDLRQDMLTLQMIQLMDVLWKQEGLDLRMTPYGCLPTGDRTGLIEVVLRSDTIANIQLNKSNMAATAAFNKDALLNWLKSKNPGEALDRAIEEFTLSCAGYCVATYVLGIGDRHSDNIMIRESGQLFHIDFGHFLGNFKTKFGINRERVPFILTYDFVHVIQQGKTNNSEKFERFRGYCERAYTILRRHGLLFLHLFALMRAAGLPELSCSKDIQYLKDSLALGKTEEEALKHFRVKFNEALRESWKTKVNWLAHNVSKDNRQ
Sequence of PI3Kδ (p110δ/p85α) Recombinant Human Protein (P27986 whole entry partner): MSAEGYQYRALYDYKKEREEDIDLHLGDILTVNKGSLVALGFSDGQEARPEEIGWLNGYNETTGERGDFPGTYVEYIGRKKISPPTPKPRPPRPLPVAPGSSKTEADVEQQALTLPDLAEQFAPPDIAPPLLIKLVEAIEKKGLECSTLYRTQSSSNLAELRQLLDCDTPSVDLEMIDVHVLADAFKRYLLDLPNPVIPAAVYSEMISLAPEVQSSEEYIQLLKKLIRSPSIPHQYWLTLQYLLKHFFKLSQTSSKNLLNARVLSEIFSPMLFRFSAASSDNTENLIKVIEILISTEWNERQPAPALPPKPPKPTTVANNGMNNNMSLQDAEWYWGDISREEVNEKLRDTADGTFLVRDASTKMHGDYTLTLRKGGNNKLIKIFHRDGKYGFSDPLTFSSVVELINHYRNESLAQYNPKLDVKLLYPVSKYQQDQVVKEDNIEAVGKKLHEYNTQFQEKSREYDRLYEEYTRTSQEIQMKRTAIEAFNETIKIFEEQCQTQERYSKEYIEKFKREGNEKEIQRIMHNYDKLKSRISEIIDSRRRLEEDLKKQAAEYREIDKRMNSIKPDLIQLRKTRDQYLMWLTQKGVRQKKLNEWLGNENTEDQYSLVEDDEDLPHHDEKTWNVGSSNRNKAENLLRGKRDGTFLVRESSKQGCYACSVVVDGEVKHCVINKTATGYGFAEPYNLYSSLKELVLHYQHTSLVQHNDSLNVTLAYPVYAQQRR
Method in brief: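 Kinase reaction run at room temperature in 20 mM MOPS pH 6.7, 10 mM MgCl2, 5 mM DTT, 0.03% CHAPS with 20 μM PIP2, 2 μM ATP plus [γ-33P]ATP, 3.4 nM enzyme, 2% DMSO; 120 min. Quenched with WGA SPA beads/EDTA, counted by scintillation; IC50 from % solvent-control activity vs log concentration.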

[3] = biological target: PI3Kγ (p110γ) Recombinant Human Protein (Homo sapiens (Human), UniProt P48736); assay: PI3K-γ Scintillation Proximity Assay; format: biochemical; conditions: read-out: PI3K-gamma SPA IC50
Sequence of PI3Kγ (p110γ) Recombinant Human Protein (P48736 whole entry): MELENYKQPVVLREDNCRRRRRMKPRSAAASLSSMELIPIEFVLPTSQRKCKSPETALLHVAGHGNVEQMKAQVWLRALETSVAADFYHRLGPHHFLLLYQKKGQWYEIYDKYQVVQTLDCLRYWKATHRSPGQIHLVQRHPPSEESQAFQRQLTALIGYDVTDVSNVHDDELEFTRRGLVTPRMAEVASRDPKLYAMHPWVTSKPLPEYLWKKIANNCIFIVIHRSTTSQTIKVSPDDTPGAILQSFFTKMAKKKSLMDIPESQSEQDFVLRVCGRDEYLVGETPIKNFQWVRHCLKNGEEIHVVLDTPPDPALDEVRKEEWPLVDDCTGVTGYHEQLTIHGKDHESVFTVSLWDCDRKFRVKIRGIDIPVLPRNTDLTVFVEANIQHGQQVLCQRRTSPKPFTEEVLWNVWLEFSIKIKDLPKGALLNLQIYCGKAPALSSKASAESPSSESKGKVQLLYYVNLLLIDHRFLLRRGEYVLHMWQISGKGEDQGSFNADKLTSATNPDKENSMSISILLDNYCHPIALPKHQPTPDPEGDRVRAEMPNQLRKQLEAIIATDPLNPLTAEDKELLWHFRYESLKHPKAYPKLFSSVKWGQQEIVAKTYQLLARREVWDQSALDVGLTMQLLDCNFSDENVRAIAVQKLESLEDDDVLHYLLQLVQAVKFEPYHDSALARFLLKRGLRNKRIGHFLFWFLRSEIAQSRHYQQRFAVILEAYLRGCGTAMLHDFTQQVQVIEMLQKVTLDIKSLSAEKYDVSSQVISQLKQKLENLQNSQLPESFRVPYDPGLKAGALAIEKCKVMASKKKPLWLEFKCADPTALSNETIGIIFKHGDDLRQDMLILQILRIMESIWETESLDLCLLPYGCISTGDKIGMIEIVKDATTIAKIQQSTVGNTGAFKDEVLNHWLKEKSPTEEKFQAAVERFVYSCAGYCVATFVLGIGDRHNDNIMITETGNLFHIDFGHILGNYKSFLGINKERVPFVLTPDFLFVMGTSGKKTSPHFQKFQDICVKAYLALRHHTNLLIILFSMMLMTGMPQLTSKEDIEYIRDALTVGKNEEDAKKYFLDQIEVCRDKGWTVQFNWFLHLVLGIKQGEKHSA
Method in brief: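 Recombinant human p110γ (13 nM) with 20 μM PIP2 and 2 μM ATP plus 0.5 μCi [γ-33P]ATP in 20 mM MOPS pH 6.7, 10 mM MgCl2, 5 mM DTT, 0.03% CHAPS, 2% DMSO, 120 min at room temperature. Product captured on WGA SPA beads and counted; IC50 fitted from % of solvent control versus log concentration.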

Row | Structure (SMILES) | pIC50 ([1]; Homo sapiens) | pIC50 [2] | pIC50 [3] | pIC50 [1]
1 | Clc1ccccc1Cn1cc(-c2ccnc(-c3ncc(-c4ccccc4)[nH]3)c2)cn1 [Example 7, 4-(1-(2-Chlorobenzyl)-1H-pyrazol-4-yl)-2-(5-phenyl-1H-imidazol-2-yl)pyridine trifluoroacetate salt] | < 5.30 | ≥ 6.30 | ≥ 7.00 | 
2 | COC[C@H](NC(=O)c1nc(-c2cc(-c3cncc(N4CCOCC4)c3)ccn2)[nH]c1C)c1ccccc1 [Example 275, N-[(1R)-2-Methoxy-1-phenylethyl]-5-methyl-2-(5-morpholin-4-yl-3,4′-bipyridin-2′-yl) 1H-imidazole-4-carboxamide trifluoroacetate salt] |  | ≥ 7.30 | ≥ 7.30 | ≥ 6.52
3 | Clc1ccc(Cn2cc(-c3ccnc(-c4ncc(-c5ccccc5)[nH]4)c3)cn2)cc1 [Example 1, 4-[1-(4-Chlorobenzyl)-1H-pyrazol-4-yl]-2-(5-phenyl-1H-imidazol-2-yl)pyridine Trifluoroacetate Salt] | < 5.30 | < 6.30 | ≥ 7.30 | 
4 | COc1cncc(-c2ccnc(-c3ncc(C(C)C)[nH]3)c2)c1 [Example 84, 2′-(5-Isopropyl-1H-imidazol-2-yl)-5-methoxy-3,4′-bipyridine trifluoroacetate salt] | 5.30 to 6.00 | ≥ 6.30 | ≥ 7.00 | 
5 | COc1cncc(-c2ccnc(-c3ncc(C)[nH]3)c2)c1 [Example 77, 5-Methoxy-2′-(5-methyl-1H-imidazol-2-yl)-3,4′-bipyridine] | 6.00 to 6.52 | ≥ 6.30 | ≥ 7.30 | 
6 | CNc1nnc(-c2cc(-c3cncc(OC)c3)ccn2)[nH]1 [Example 68, 5-(5-Methoxy-3,4′-bipyridin-2′-yl)-N-methyl-4H-1,2,4-triazol-3-amine trifluoroacetate salt] | < 5.30 | < 6.30 | ≥ 6.30 | 
7 | CS(=O)(=O)c1cncc(-c2ccnc(-c3ncc(C4CCCCC4)[nH]3)c2)c1 [Example 106, 2′-(5-Cyclohexyl-1H-imidazol-2-yl)-5-(methylsulfonyl)-3,4′-bipyridine Trifluoroacetate Salt] | ≥ 6.52 | ≥ 7.30 | ≥ 7.30 | 
8 | N#Cc1ccc(Cn2cc(-c3ccnc(-c4ncc(-c5ccccc5)[nH]4)c3)cn2)cc1 [Example 43, 4-((4-(2-(5-Phenyl-1H-imidazol-2-yl)pyridin-4-yl)-1H-pyrazol-1-yl)methyl)benzonitrile trifluoroacetate salt] | < 5.30 | < 6.30 | ≥ 6.30 | 
9 | Cc1nc(-c2cc(-c3cncc(C(=O)N(C)Cc4ccccc4)c3)ccn2)[nH]c1C [Example 193, N-Benzyl-2′-(4,5-dimethyl-1H-imidazol-2-yl)-N-methyl-3,4′-bipyridine-5-carboxamide trifluoroacetate salt] | ≥ 6.52 | ≥ 7.30 | ≥ 7.30 | 
10 | Cc1nc(-c2cc(C3=CCCN(S(=O)(=O)c4ccc(Cl)cc4)C3)ccn2)[nH]c1C [Example 221, 4-(1-(4-Chlorophenylsulfonyl)-1,2,5,6-tetrahydropyridin-3-yl)-2-(4,5-dimethyl-1H-imidazol-2-yl)pyridine trifluoroacetate salt] | < 5.30 | ≥ 6.30 | ≥ 7.00 | 
11 | Cc1[nH]c(-c2cc(-c3cncc(N4CCOCC4)c3)ccn2)nc1C(=O)NC1C2CC3CC(C2)CC1C3 (stereo not drawn) [Example 278, N-2-Adamantyl-5-methyl-2-(5-morpholin-4-yl-3,4′-bipyridin-2′-yl)-1H-imidazole-4-carboxamide trifluoroacetate salt] | 6.00 to 6.52 | ≥ 7.30 | ≥ 7.30 | 
12 | Cc1[nH]c(-c2cc(-c3cncc(S(C)(=O)=O)c3)ccn2)nc1C(=O)N1CC(C#N)C1 [Example 248, 1-({5-Methyl-2-[5-(methylsulfonyl)-3,4′-bipyridin-2′-yl]-lH-imidazol-4-yl}carbonyl)azetidine-3-carbonitrile] |  | ≥ 7.30 | ≥ 7.30 | 5.30 to 6.00
13 | CCNC(=O)c1nc(-c2cc(-c3cncc(S(C)(=O)=O)c3)ccn2)[nH]c1C [Example 252, N-Ethyl-5-methyl-2-[5-(methylsulfonyl)-3,4′-bipyridin-2′-yl]-1H-imidazole-4-carboxamide trifluoroacetate salt] | ≥ 6.52 | ≥ 7.30 | ≥ 7.30 | 
14 | Cc1nc(-c2cc(C3=CCCN(S(=O)(=O)c4ccccc4)C3)ccn2)[nH]c1C [Example 214, 2′-(4,5-Dimethyl-1H-imidazol-2-yl)-1-(phenylsulfonyl)-1,2,5,6-tetrahydro-3,4′-bipyridine Trifluoroacetate Salt] | < 5.30 | ≥ 6.30 | ≥ 7.30 | 
15 | COc1cncc(-c2ccnc(-c3ncc(-c4ccccc4)[nH]3)c2)c1 [Example 19, 5-Methoxy2′-(5-phenyl-1H-imidazol-2-yl)-3,4′-bipyridin trifluoroacetate salt] | 5.30 to 6.00 | ≥ 7.30 | ≥ 7.30 | 
16 | CCn1cc(-c2ccnc(-c3ncc(-c4ccccc4)[nH]3)c2)cn1 [Example 10, 4-(1-Ethyl-1H-pyrazol-4-yl)-2-(5-phenyl-1H-imidazol-2-yl)pyridine trifluoroacetate salt] | 5.30 to 6.00 | ≥ 6.30 | ≥ 6.30 | 
17 | c1ccc(Cn2cc(-c3ccnc(-c4ncc(-c5ccccc5)[nH]4)c3)cn2)cc1 [Example 5, 4-(1-Benzyl-1H-pyrazol-4-yl)-2-(5-phenyl-1H-imidazol-2-yl)pyridine trifluoroacetate salt] | 5.30 to 6.00 | ≥ 7.30 | ≥ 7.00 | 

Further lines, with some results ahead:

Row | pIC50 ([1]; Homo sapiens) | pIC50 [2] | pIC50 [3] | Structure (SMILES) | pIC50 [1]
18 | 5.30 to 6.00 | ≥ 6.30 | ≥ 7.30 | Cc1nc(-c2cc(-c3cncc(C(=O)NCC4CCCC4)c3)ccn2)[nH]c1C [Example 207, N-(Cyclopentylmethyl)-2′-(4,5-dimethyl-1H-imidazol-2-yl)-3,4′-bipyridine-5-carboxamide trifluoroacetate salt] | 
19 | ≥ 6.52 | ≥ 7.30 | ≥ 7.30 | COC1CCN(C(=O)c2cncc(-c3ccnc(-c4nc(C)c(C)[nH]4)c3)c2)C1 (racemic) [Example 174, 2′-(4,5-Dimethyl-1H-imidazol-2-yl)-5-[(3-methoxypyrrolidin-1-yl)carbonyl]-3,4′-bipyridine trifluoroacetate salt] | 
20 | 6.00 to 6.52 | ≥ 7.30 | ≥ 7.00 | Cc1nc(-c2cc(-c3cncc(C(=O)N4CCC(c5cnccn5)C4)c3)ccn2)[nH]c1C (stereo not drawn) [Example 197, 2′-(4,5-Dimethyl-1H-imidazol-2-yl)-5-[(3-pyrazin-2-ylpyrrolidin-1-yl)carbonyl]-3,4′-bipyridine trifluoroacetate salt] | 
21 | 5.30 to 6.00 | ≥ 6.30 | ≥ 7.00 | Cc1nc(-c2cc(-c3cncc(C4CCN(S(C)(=O)=O)C4)c3)ccn2)[nH]c1C (racemic) [Example 240, 2′-(4,5-Dimethyl-1H-imidazol-2-yl)-5-[1-(methylsulfonyl)pyrrolidin-3-yl]-3,4′-bipyridine] | 
22 | 5.30 to 6.00 | ≥ 7.00 | ≥ 7.30 | CC(=O)N1CCN(C(=O)c2cncc(-c3ccnc(-c4nc(C)c(C)[nH]4)c3)c2)CC1 [Example 159, 1-(4-(2′-(4,5-Dimethyl-1H-imidazol-2-yl)-3,4′-bipyridine-5-carbonyl)piperazin-1-yl)ethanone trifluoroacetate salt] | 
23 | ≥ 6.52 | ≥ 7.30 | ≥ 7.30 | Cc1nc(-c2cc(-c3cncc(C(=O)N4CC(C#N)C4)c3)ccn2)[nH]c1C [Example 153, 1-(2′-(4,5-Dimethyl-1H-imidazol-2-yl)-3,4′-bipyridine-5-carbonyl)azetidine-3-carbonitrile trifluoroacetate salt] | 
24 | 5.30 to 6.00 | ≥ 7.30 | ≥ 7.30 | Cc1[nH]c(-c2cc(-c3cncc(N4CCOCC4)c3)ccn2)nc1C(=O)N1CC(C)(C)C1 [Example 267, 2′-{4-[(3,3-Dimethylazetidin-1-yl)carbonyl]-5-methyl-1H-imidazol-2-yl}-5-morpholin-4-yl-3,4′-bipyridine] | 
25 | 5.30 to 6.00 | ≥ 7.30 | ≥ 7.30 | Cc1nc(-c2cc(-c3cncc(C(=O)N4CCC(C)(O)C4)c3)ccn2)[nH]c1C (racemic) [Example 180, 1-{[2′-(4,5-Dimethyl-1H-imidazol-2-yl)-3,4′-bipyridin-5-yl]carbonyl}-3-methylpyrrolidin-3-ol trifluoroacetate salt] | 
26 | 5.30 to 6.00 | ≥ 7.00 | ≥ 7.30 | Cc1nc(-c2cc(-c3cncc(C(=O)NC(C)(C)C)c3)ccn2)[nH]c1C [Example 208, N-(tert-Butyl)-2′-(4,5-dimethyl-1H-imidazol-2-yl)-3,4′-bipyridine-5-carboxamide trifluoroacetate salt] | 
